According to US20240360133A1, “FUSED TRICYCLIC COMPOUND, PREPARATION METHOD THEREFOR AND APPLICATION THEREOF IN MEDICINE” (Jiangsu Hengrui Pharmaceuticals Co., Ltd., priority 2020, published 2024):

How the values were obtained:
[1] = molecular target: T1, human TLR7 (Homo sapiens, UniProt Q9NYK1); experiment: Inhibitory effect on human TLR7 activation pathway (HEK-Blue hTLR7 SEAP reporter); format: cell-based; conditions: HEK-Blue hTLR7 cells, 1 μM resiquimod, 20 h, SEAP OD620
T1 construct: host or cells: HEK-Blue hTLR7 (HEK293)
T1 sequence (Q9NYK1 27-1049): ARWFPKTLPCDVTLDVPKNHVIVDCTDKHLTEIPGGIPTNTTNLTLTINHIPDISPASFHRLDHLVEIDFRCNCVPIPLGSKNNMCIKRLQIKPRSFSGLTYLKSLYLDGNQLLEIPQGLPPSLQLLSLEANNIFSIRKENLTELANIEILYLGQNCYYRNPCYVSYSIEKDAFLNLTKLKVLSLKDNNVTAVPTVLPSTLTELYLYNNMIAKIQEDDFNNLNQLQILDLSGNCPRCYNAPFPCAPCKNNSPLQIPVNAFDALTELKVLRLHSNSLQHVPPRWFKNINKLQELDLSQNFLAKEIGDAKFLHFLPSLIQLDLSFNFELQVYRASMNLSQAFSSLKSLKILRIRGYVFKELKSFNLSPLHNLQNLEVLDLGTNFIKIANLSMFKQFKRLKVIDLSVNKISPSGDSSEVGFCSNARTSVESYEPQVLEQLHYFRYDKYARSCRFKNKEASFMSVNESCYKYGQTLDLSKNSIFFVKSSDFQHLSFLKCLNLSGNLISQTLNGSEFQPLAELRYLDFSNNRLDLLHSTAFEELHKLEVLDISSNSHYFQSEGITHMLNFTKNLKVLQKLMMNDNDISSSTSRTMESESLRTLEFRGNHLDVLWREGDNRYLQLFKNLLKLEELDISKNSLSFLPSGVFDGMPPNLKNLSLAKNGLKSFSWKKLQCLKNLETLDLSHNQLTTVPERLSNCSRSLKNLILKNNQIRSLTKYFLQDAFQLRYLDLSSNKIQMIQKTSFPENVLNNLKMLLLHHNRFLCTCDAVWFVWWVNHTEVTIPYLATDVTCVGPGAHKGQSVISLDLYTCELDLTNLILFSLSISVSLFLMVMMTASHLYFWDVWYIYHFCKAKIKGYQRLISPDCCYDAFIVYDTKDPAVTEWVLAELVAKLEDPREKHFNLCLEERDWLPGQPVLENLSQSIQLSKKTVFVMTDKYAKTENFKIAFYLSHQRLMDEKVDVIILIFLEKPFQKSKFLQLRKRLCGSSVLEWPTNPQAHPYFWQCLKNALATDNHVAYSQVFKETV
Protocol: (§1) • 1. HEK-Blue™ hTLR7 cell (Invivogen) • 2. Resiquimod (R848, Invivogen) • 3. Alkaline phosphatase detection medium (Quanti-Blue Detection, Invivogen) • 4. Blasticidin (Invivogen) • 5. Zeocin (Invivogen) • 6. Normocin (Invivogen) • 7. DMEM/HIGH Glucose (GE Healthcare) • 8. Fetal bovine serum (FBS, Gibco) • 9. Phosphate-buffered saline (Shanghai BasalMedia Technologies Co., Ltd.) • 10. Sterile purified water (made in-house by Shanghai Hengrui) • 11. 15 mL centrifuge tube (Corning) • 12. %-well formulating plate (Corning) • 13. 96-well flat-bottom cell culture plate (Corning) • 14. Constant-temperature cell incubator (Thermo scientific) • 15. Constant-temperature incubator (Shanghai Yiheng Scientific Instruments Co., Ltd.) • 16. PHERAstar FS microplate reader (BMG Labtech)
(§2) HEK-Blue™ hTLR7 cells were purchased from Invivogen. These cells are HEK293 cells transfected with the human Toll-like receptor 7 (TLR7) gene and the secreted alkaline phosphatase reporter gene (SEAP). The alkaline phosphatase reporter gene (SEAP) is under the regulation of the IFN—P minimal promoter comprising 5 NF-kB and AP-1 binding sites. Upon activation of TLR7 with an agonist, SEAP secretion is induced via downstream NF-kB and AP-1. After addition of an antagonist compound, the pathway described above is inhibited, and SEAP secretion is reduced. The activity of the compounds for the TLR7 pathway was evaluated by measuring OD620 through the SEAP substrate.
(§3) 20 mM test compounds dissolved in 100% DMSO were serially diluted with 100% DMSO to 2000, 400, 80, 16, 3.2, 0.64, 0.128, 0.0256 μM, with blank wells containing 100% DMSO. The compounds and 100% DMSO were then 20-fold diluted in DMEM/HIGH glucose media containing 10% inactivated FBS (complete media, the same applies below). Resiquimod was diluted to 10 μM with sterile water. The 10 μM resiquimod dilution in sterile water was added to a 96-well cell culture plate at 20 μL/well. The above compounds diluted in complete media and 100% DMSO were then added at 20 μL/well to wells containing resiquimod, 20 μL of sterile water and 20 μL of 100% DMSO diluted in the complete medium were added to negative control wells.
(§4) HEK-Blue™ hTLR7 cells were cultured in a DMEM/HIGH glucose medium containing 10% inactivated FBS, 100 μg/mL Normocin, 10 μg/mL blasticidin, and 100 μg/mL Zeocin. Cells that were in a good state of growth and had grown to 70%-80% were collected. The growth medium was discarded, 5-10 mL of PBS pre-heated at 37° C. was added to wash the cells once, and 2-5 mL of pre-heated PBS was added. The cells were cultured at 37° C. for 1-2 min, dispersed by pipetting, transferred to a 15 mL centrifuge tube, and counted, and the cell density was adjusted to 4.8-10′/mL with the complete medium. After density adjustment, 160 μL of the resulting cell suspension was added to the above 96-well cell culture plate to a final number of cells per well of 76,500/well. The final concentration of resiquimod was 1 μM, and the final concentrations of the test compounds were 10,000, 2000, 400, 80, 16, 3.2, 0.64, and 0.128 nM. The cells were cultured in a 37° C., 5% CO2 incubator for 20 h. Then 20 μL of the supernatant was added to 180 μL of the prepared alkaline phosphatase detection medium and incubated in the dark in a constant-temperature incubator at 37° C. for 120 min. Then the OD620 absorbance readings were taken on a microplate reader. The inhibition rate was calculated using the following formula: […]
Inhibition curves were plotted using Graphpad Prism software according to the concentrations of the compounds and the corresponding inhibition rates, and the concentrations of the compounds at which the inhibition rate reached 50%, i.e., IC50 values, were calculated and are shown in Table 1.

[2] = molecular target: T2, human TLR8 (Homo sapiens, UniProt Q9NR97); experiment: Inhibitory effect on human TLR8 pathway (HEK-Blue hTLR8 SEAP reporter); format: cell-based; conditions: HEK-Blue hTLR8 cells, 6 μM resiquimod, 20 h, SEAP OD620
T2 construct: host or cells: HEK-Blue hTLR8 (HEK293)
T2 sequence (Q9NR97 27-1041): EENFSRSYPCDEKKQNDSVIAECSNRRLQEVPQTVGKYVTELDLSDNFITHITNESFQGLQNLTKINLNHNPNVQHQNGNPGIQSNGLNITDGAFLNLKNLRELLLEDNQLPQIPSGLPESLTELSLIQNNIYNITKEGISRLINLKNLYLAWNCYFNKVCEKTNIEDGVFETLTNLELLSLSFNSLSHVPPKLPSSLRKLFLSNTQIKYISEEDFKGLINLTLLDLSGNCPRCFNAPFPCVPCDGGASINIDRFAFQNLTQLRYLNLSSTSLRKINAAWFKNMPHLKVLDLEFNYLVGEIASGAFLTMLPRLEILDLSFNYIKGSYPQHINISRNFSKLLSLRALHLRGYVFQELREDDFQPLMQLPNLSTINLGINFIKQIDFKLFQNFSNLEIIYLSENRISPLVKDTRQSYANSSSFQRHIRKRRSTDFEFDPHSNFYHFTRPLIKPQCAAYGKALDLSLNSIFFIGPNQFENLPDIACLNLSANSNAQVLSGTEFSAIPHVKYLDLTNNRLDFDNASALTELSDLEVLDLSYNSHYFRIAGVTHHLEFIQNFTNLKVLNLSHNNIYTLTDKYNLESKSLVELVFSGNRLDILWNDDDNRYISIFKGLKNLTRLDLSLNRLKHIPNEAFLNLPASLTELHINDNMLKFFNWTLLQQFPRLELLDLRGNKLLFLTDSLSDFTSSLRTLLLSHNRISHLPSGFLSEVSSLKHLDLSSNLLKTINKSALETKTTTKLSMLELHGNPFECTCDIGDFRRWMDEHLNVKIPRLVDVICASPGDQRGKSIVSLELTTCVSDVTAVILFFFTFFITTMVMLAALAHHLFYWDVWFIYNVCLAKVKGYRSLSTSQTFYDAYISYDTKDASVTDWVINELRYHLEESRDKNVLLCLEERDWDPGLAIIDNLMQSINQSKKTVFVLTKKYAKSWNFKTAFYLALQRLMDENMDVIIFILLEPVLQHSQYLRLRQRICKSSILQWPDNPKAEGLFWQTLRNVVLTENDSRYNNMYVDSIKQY
Protocol: as §1, with “hTLR8” for “hTLR7”, “96-well” for “%-well”
as §2, with “hTLR8” for “hTLR7”, “8 (TLR8)” for “7 (TLR7)”, “TLR8” for “TLR7”
as §3, with “to 60” for “to 10”, “The 60” for “The 10”
as §4, with “HEK-Blue™ hTLR8” for “HEK-Blue™ hTLR7”, “to 70%-8%” for “to 70%-80%”, “to 4.8×10^5/mL” for “to 4.8-10′/mL”, “was 6” for “was 1”, “min. The” for “min. Then the”
Inhibition curves were plotted using Graphpad Prism software according to the concentrations of the compounds and the corresponding inhibition rates, and the concentrations of the compounds at which the inhibition rate reached 50%, i.e., IC50 values, were calculated and are shown in Table 2.

IC50 [1] [nM]	IC50 [2] [nM]	SMILES
14.9		Cc1cc(-c2[nH]c3cc4c(nc3c2C(C)C)CC(NC2CCOC2)CC4)cc(C)n1 (centres unmarked) [Example 3, 2-(2,6-Dimethylpyridin-4-yl)-3-isopropyl-N-(tetrahydrofuran-3-yl)-5,6,7,8-tetrahydro-1H-pyrrolo[3,2-b]quinolin-6-amine]
	10.5	Cc1cc(-c2[nH]c3cc4c(nc3c2C2CCOCC2)CNCC4)cc(C)n1 [Example 6, 2-(2,6-Dimethylpyridin-4-yl)-3-(tetrahydro-2H-pyran-4-yl)-5,6,7,8-tetrahydro-1H-pyrrolo[3,2-b][1,7]naphthyridine]
